This is an account of results in the supplement of paper PMC10307832.

Holding throughout (experiment): relative viability (nuclei count vs DMSO), 5 days (fraction); higher = more cells survive
Compound in the test “Idelalisib + Phenformin”: CC[C@H](Nc1ncnc2[nH]cnc12)c1nc2cccc(F)c2c(=O)n1-c1ccccc1 [Idelalisib] + N=C(N)NC(=N)NCCc1ccccc1 [Phenformin] (partner 250 µM)
The procedure, abridged: (§1)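 Values are medians from duplicate plates. Each reflects relative viability, defined as the nuclei count of treated wells over that of vehicle wells. Lung cancer cell lines in 1536-well plates were pin-tool dosed one day after seeding with one drug alone or with a fixed anchor-drug dose plus five library-drug doses (not always all listed) in √10 steps, then fixed, stained and imaged at 4× after 5 days.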

Compound in the test “Idelalisib + Tozasertib”: CC[C@H](Nc1ncnc2[nH]cnc12)c1nc2cccc(F)c2c(=O)n1-c1ccccc1 [Idelalisib] + Cc1cc(Nc2cc(N3CCN(C)CC3)nc(Sc3ccc(NC(=O)C4CC4)cc3)n2)n[nH]1 [Tozasertib] (partner 0.1 µM)
In short, it runs like this:
as §1

Compound in the test “Idelalisib + Pemetrexed”: CC[C@H](Nc1ncnc2[nH]cnc12)c1nc2cccc(F)c2c(=O)n1-c1ccccc1 [Idelalisib] + Nc1nc2[nH]cc(CCc3ccc(C(=O)N[C@@H](CCC(=O)O)C(=O)O)cc3)c2c(=O)[nH]1 [Pemetrexed] (partner 0.2 µM)
In short, it runs like this:
as §1

Compound in the test “Idelalisib + Dasatinib”: CC[C@H](Nc1ncnc2[nH]cnc12)c1nc2cccc(F)c2c(=O)n1-c1ccccc1 [Idelalisib] + Cc1nc(Nc2ncc(C(=O)Nc3c(C)cccc3Cl)s2)cc(N2CCN(CCO)CC2)n1 [Dasatinib] (partner 0.075 µM)
The procedure, abridged: as §1

As to UMC-11, the relative viability worked out at 0.323 in the test with Idelalisib + Phenformin (first compound 0.04 µM); 0.327 with Idelalisib + Phenformin (first compound 0.1265 µM); 0.303 with Idelalisib + Phenformin (first compound 0.4 µM); 0.321 in the test with Idelalisib + Phenformin (first compound 1.265 µM); 0.318 in the test with Idelalisib + Phenformin (first compound 4 µM); 0.218 in the test with Idelalisib + Tozasertib (first compound 0.04 µM). Moreover, the relative viability with Idelalisib + Tozasertib (first compound 0.1265 µM) was 0.192; in the test with Idelalisib + Tozasertib (first compound 0.4 µM) it was 0.203; with Idelalisib + Tozasertib (first compound 1.265 µM), 0.188; with Idelalisib + Tozasertib (first compound 4 µM), 0.192; with Idelalisib + Pemetrexed (first compound 0.04 µM), 0.673; in the test with Idelalisib + Pemetrexed (first compound 0.1265 µM), 0.77. The relative viability in the test with Idelalisib + Pemetrexed (first compound 0.4 µM) amounted to 0.793; with Idelalisib + Pemetrexed (first compound 1.265 µM), 0.839; in the test with Idelalisib + Pemetrexed (first compound 4 µM) it was 0.936; in the test with Idelalisib + Dasatinib (first compound 0.04 µM) it was 0.349; with Idelalisib + Dasatinib (first compound 0.1265 µM), 0.492; with Idelalisib + Dasatinib (first compound 0.4 µM), 0.391. Moreover, the relative viability with Idelalisib + Dasatinib (first compound 1.265 µM) is 0.564; in the test with Idelalisib + Dasatinib (first compound 4 µM), 0.474.
